Eight compounds from ChEMBL document CHEMBL5625174, “Are inhibitors of histone deacetylase 8 (HDAC8) effective in hematological cancers especially acute myeloid leukemia (AML) and acute lymphoblastic leukemia (ALL)?” (Eur J Med Chem, 2023) can be followed below.

Bounds are passed on as bounds.

What is called IC50 is the concentration that gives 50% inhibition. By GI50 is commonly meant the concentration giving 50% growth inhibition.

Experiment [1] has as its target T1, Histone deacetylase 8 (Homo sapiens, UniProt Q9BY41).
T1 sequence (Q9BY41 whole entry): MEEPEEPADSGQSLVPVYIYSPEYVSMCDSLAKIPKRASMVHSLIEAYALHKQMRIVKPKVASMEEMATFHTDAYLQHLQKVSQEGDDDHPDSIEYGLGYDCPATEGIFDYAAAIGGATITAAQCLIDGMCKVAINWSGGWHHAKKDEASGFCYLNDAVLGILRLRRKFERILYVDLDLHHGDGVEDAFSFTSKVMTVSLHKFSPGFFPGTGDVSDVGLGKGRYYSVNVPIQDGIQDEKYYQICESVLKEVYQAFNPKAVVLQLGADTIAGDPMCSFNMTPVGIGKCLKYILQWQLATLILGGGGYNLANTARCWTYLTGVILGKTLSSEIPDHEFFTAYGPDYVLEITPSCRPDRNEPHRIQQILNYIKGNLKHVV
Briefly: Inhibition of HDAC8 (unknown origin).

In experiment [2] the target is Macrophage metalloelastase (Homo sapiens, UniProt P39900). Briefly: Inhibition of MMP-12 (unknown origin).
Chain of Macrophage metalloelastase (P39900 whole entry): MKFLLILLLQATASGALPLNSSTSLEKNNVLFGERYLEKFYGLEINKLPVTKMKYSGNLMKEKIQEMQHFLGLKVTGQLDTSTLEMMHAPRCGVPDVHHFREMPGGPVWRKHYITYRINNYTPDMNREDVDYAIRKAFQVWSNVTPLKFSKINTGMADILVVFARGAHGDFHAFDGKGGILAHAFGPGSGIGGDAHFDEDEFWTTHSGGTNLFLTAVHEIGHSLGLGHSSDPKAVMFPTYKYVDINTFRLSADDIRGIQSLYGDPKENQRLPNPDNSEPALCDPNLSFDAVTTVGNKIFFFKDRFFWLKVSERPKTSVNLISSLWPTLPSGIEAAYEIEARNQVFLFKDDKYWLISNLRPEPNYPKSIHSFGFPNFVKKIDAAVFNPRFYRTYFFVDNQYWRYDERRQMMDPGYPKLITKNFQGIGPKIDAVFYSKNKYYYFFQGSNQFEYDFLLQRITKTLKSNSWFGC
The target of another experiment is Histone deacetylase. Briefly: Inhibition of HDAC (unknown origin) using Fluoro-Substrate Peptide as substrate by fluorescence assay. Type of experiment: protein assay, Homo sapiens.
The target in experiment [3] is T1, Histone deacetylase 8. Briefly: Inhibition of HDAC8 (unknown origin) using as Fluor-de-lys substrate by fluorescence based analysis.
For a further experiment, the target named is Neutrophil collagenase (Homo sapiens, UniProt P22894). In words: Inhibition of MMP-8 (unknown origin).
Chain of Neutrophil collagenase (P22894 whole entry): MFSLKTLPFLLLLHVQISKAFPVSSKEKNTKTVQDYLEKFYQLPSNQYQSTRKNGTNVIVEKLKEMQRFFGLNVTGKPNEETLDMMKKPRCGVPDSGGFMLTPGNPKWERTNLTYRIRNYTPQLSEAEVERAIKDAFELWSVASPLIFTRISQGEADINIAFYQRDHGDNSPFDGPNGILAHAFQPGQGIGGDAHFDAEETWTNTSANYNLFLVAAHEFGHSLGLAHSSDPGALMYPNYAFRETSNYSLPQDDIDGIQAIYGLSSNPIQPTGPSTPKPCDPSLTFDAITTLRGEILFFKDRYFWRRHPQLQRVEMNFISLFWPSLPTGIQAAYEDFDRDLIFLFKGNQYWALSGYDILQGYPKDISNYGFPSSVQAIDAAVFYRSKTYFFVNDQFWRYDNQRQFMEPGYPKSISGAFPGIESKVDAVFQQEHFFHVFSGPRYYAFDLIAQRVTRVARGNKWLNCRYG
Experiment [4] addresses 72 kDa type IV collagenase (Homo sapiens, UniProt P08253). In words: Inhibition of MMP-2 (unknown origin).
Experiment [5] deals with Matrix metalloproteinase-9 (Homo sapiens, UniProt P14780). In words: Inhibition of MMP-9 (unknown origin).
Chain of Matrix metalloproteinase-9 (P14780 whole entry): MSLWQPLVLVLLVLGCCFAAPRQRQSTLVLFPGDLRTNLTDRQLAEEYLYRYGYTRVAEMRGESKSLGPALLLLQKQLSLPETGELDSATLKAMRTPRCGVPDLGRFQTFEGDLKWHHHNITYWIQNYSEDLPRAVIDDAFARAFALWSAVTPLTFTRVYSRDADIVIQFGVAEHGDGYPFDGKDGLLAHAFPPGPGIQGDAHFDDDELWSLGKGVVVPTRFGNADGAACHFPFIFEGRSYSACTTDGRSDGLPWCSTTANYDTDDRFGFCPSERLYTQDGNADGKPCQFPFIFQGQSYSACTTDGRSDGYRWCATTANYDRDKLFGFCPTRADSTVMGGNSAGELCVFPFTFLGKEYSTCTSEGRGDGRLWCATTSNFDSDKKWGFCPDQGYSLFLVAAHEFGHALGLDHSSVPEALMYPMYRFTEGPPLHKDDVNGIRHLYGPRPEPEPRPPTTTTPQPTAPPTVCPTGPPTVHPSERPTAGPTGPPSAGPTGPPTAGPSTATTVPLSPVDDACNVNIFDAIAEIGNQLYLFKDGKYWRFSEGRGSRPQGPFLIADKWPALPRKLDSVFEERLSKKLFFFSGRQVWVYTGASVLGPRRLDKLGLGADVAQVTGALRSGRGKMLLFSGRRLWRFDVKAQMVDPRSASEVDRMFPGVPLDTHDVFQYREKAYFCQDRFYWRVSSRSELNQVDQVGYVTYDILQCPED
Experiment [6] deals with Matrix metalloproteinase-14 (Homo sapiens, UniProt P50281). Briefly: Inhibition of MMP-14 (unknown origin).
The target of experiment [7] is T1, Histone deacetylase 8. Briefly: Inhibition of HDAC8 (unknown origin) by fluorescence based assay.
The test system of the next experiment is U-937. Briefly: Cytotoxicity against human U-937 cells assessed as reduction in cell viability. Type of experiment: functional, cell-based.
Experiment [8] concerns Jurkat E6.1. In words: Cytotoxicity against human Jurkat E6.1 cells assessed as reduction in cell viability. Format: functional, cell-based.
The test system of experiment [9] is MOLT-4. Briefly: Cytotoxicity against human MOLT-4 cells assessed as reduction in cell viability. Type of experiment: functional, cell-based.
The subject of the next experiment is MCF7. Briefly: Antiproliferative activity against human MCF7 cells assessed as reduction in cell viability incubated for 24 hrs by MTT assay. As to conditions: MCF7, 24 h. Format: functional, cell-based. (In general: Tetrazolium assays rely on reduction of a dye to a coloured formazan, in cell work by metabolically active cells.)
The subject of another experiment is MDA-MB-231. In words: Antiproliferative activity against human MDA-MB-231 cells assessed as reduction in cell viability incubated for 24 hrs by MTT assay. As to conditions: MDA-MB-231, 24 h. Type of experiment: functional, cell-based.
A further experiment concerns HeLa. Briefly: Growth inhibition of human HeLa cells incubated for 72 hrs by trypan blue assay. Format: functional.
The target in the next experiment is Histone deacetylase 1 (Homo sapiens, UniProt Q13547). Briefly: Inhibition of HDAC1 (unknown origin) using Ac-Leu-Gly-Lys(Ac)-AMC as substrate pre-incubated for 30 mins followed by substrate addition and measured after 30 mins by fluorescence based analysis.
Chain of Histone deacetylase 1 (Q13547 whole entry): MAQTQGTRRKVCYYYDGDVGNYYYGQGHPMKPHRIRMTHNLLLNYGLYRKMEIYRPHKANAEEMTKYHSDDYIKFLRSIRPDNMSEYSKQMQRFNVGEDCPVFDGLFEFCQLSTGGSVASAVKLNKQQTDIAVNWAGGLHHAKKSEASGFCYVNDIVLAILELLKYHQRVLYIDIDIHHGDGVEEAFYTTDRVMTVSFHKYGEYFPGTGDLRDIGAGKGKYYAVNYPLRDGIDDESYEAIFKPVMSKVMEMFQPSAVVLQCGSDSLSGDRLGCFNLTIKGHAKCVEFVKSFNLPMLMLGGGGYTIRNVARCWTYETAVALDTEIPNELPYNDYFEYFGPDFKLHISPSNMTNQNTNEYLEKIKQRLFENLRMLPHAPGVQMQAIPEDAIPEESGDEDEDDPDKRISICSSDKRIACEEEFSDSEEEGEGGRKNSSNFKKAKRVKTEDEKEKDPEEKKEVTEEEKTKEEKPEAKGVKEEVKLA
A further experiment addresses Histone deacetylase 2 (Homo sapiens, UniProt Q92769). In words: Inhibition of HDAC2 (unknown origin) assessed as release of fluorogenic AMC pre-incubated for 15 mins followed by addition of trypsin and substrate measured after 60 mins microplate reader analysis.
The target of the next experiment is Histone deacetylase 3 (Homo sapiens, UniProt O15379). In words: Inhibition of HDAC3 (unknown origin) assessed as release of fluorogenic AMC pre-incubated for 15 mins followed by addition of trypsin and substrate measured after 60 mins microplate reader analysis.
Chain of Histone deacetylase 3 (O15379 whole entry): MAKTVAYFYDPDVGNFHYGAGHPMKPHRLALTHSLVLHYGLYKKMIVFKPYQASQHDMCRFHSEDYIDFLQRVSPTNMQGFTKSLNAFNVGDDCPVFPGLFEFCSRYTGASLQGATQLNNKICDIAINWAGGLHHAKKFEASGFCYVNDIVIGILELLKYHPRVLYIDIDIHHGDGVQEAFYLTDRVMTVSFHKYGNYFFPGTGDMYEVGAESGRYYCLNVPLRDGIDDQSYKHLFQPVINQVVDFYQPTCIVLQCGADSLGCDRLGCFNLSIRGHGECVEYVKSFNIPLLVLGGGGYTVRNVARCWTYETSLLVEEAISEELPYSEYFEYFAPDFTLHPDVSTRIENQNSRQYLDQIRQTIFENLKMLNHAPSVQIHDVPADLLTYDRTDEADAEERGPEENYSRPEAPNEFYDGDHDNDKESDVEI
Experiment [10] concerns the target T2, Histone deacetylase 4 (Homo sapiens, UniProt P56524). Briefly: Inhibition of HDAC4 (unknown origin) assessed as release of fluorogenic AMC pre-incubated for 15 mins followed by addition of trypsin and substrate measured after 60 mins microplate reader analysis.
Experiment [11] is described as follows: Inhibition of HDAC6 (unknown origin) assessed as release of fluorogenic AMC pre-incubated for 15 mins followed by addition of trypsin and substrate measured after 60 mins microplate reader analysis. The arrangement: species or system Homo sapiens.
Experiment [12] addresses T1, Histone deacetylase 8. In words: Inhibition of HDAC8 (unknown origin) assessed as release of fluorogenic AMC pre-incubated for 15 mins followed by addition of trypsin and substrate measured after 60 mins microplate reader analysis.
In experiment [13] the target is T3, Polyamine deacetylase HDAC10 (Homo sapiens, UniProt Q969S8).
T3 sequence (Q969S8 whole entry): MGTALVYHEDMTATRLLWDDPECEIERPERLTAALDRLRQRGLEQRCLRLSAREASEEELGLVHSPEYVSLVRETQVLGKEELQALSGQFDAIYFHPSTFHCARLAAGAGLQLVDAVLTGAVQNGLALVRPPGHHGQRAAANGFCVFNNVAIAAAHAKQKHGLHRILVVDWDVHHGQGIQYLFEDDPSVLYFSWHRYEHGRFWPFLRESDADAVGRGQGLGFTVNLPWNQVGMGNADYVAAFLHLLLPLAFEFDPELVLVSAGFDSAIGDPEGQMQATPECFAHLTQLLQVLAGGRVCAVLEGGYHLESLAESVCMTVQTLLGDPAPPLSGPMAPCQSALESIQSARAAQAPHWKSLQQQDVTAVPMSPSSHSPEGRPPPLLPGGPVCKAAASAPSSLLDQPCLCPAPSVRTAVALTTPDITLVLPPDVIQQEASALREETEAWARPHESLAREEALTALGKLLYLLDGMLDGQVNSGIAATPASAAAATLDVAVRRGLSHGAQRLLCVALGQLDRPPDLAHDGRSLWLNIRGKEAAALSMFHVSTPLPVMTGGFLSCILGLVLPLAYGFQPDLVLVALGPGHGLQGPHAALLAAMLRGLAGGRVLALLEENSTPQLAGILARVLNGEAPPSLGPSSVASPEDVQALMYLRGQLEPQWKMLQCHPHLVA
Briefly: Inhibition of HDAC10 (unknown origin) assessed as release of fluorogenic AMC pre-incubated for 15 mins followed by addition of trypsin and substrate measured after 60 mins microplate reader analysis.

The subject of experiment [14] is Jurkat. In words: Antiproliferative activity against human Jurkat cells assessed as cell growth inhibition measured after 72 hrs by CCK-8 assay. Type of experiment: functional.
In a further experiment the test system is HH. Briefly: Antiproliferative activity against human HH cells assessed as cell growth inhibition measured after 72 hrs by CCK-8 assay. Type of experiment: functional.
For another experiment, the system named is MT4. In words: Cytotoxicity against human MT4 cells assessed as inhibition of cell growth incubated for 72 hrs by CCK-8 assay. Type of experiment: functional.
Another experiment deals with HuT78. Briefly: Anti-proliferative activity against human HuT78 cells assessed as growth inhibition incubated for 72 hrs by alamar blue staining based fluorometric assay. Type of experiment: functional. Background: The colour change of resazurin is a common sign of viable cells or microbes.
In experiment [15] the test system is Jurkat. Briefly: Cytotoxicity against human Jurkat cells assessed as reduction in cell viability measured after 24 hrs by Celltiter-Glo assay. Type of experiment: functional, cell-based.
For experiment [16], the target named is T2, Histone deacetylase 4. Briefly: Inhibition of HDAC4 (unknown origin).
Experiment [17] has as its target T3, Polyamine deacetylase HDAC10. Briefly: Inhibition of HDAC10 (unknown origin).
For experiment [18], the system named is Jurkat. Briefly: cells. Type of experiment: functional. As to conditions: Homo sapiens.
Description: Growth inhibition of human Jurkat cells
Experiment [19] relates to MOLT-4. In words: cells. Type of experiment: functional. The settings on record: Homo sapiens, time 24 hrs.
Description: Growth inhibition of human MOLT-4 cells measured after 24 hrs by MTT assay
The test system of a further experiment is THP-1. In words: cells. The settings on record: Homo sapiens. Format: functional.
Experiment [20] relates to Jurkat E6.1. Briefly: Cytotoxicity against human Jurkat E6.1 cells assessed as reduction in cell growth measured after 48 hrs by MTT assay. Type of experiment: functional, cell-based. As to conditions: Jurkat E6.1, 48 h.

T2 sequence (P56524 whole entry): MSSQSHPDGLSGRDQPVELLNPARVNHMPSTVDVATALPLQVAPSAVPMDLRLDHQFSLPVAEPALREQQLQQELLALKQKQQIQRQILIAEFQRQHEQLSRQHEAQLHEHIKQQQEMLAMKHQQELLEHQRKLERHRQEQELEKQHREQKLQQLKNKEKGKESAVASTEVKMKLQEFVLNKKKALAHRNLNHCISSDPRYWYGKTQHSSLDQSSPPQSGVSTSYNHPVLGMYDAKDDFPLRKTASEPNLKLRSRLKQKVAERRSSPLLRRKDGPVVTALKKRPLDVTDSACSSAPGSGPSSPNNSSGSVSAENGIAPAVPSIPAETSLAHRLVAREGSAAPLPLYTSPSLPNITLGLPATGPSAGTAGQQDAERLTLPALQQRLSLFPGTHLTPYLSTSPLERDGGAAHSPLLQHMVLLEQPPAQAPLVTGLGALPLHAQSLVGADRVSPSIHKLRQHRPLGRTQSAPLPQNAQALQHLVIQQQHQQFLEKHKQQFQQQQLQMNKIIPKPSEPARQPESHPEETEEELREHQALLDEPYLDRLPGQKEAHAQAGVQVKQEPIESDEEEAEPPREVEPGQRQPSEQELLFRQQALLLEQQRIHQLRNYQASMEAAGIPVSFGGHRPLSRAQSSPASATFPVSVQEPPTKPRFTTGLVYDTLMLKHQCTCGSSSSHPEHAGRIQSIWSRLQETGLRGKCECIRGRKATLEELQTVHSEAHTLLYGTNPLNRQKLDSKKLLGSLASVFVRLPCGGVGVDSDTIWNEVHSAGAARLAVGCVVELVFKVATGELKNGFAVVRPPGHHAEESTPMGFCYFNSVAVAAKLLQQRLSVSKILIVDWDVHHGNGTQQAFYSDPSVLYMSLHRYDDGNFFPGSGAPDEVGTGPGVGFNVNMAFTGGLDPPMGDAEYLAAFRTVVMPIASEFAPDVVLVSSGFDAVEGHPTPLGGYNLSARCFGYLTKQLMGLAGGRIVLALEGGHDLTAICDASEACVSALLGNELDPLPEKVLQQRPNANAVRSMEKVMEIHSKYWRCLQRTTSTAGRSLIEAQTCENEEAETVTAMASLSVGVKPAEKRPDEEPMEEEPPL
Chain of Histone deacetylase 2 (Q92769 whole entry): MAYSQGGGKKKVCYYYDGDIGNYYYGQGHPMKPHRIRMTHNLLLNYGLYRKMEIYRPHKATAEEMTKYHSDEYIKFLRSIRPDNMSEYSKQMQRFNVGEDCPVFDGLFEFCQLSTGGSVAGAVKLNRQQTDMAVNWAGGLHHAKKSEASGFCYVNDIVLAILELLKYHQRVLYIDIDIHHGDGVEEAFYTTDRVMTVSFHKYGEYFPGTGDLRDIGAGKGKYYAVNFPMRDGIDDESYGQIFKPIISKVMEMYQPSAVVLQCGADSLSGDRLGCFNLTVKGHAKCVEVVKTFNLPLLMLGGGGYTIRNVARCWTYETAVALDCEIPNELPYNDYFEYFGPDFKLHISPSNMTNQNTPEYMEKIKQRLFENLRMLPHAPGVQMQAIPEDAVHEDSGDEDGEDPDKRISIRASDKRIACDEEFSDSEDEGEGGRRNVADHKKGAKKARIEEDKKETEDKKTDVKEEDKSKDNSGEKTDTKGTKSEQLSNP
Chain of 72 kDa type IV collagenase (P08253 whole entry): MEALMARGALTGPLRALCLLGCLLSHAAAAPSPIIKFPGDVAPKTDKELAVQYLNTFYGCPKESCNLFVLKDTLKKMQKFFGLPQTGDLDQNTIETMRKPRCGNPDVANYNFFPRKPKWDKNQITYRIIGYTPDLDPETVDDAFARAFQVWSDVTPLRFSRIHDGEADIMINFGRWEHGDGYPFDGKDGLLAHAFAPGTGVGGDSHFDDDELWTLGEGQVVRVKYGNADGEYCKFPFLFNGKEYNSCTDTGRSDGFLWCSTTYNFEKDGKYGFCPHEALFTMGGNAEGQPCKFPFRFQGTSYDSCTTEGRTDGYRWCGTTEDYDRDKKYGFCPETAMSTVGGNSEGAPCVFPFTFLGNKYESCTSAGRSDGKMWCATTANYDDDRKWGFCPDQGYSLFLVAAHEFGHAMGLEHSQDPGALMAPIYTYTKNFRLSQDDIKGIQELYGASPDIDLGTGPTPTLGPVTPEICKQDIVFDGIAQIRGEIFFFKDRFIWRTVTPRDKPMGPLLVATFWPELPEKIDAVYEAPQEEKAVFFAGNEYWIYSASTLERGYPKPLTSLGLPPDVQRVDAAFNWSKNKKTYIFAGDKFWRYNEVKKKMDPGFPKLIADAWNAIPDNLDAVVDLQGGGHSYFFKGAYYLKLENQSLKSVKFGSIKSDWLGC
Description for THP-1: Growth inhibition of human THP-1 cells

`COc1ccc(-c2cccc(-c3cc(OC)c(OC)c(OC)c3)n2)cc1/C=C/C(=O)NO` had a half-inhibitory concentration (IC50) at Histone deacetylase 8 [1] of 0.117 µM.
Regarding `O=C(O)CC[C@H](NC(=O)Cc1ccc(Br)cc1)C(=O)NCc1ccc([N+](=O)[O-])cc1`, the IC50 in experiment [2] is 138 µM; on Histone deacetylase it was over 10 µM; against Histone deacetylase 8 [3] it was 2.89 µM; against Neutrophil collagenase, 206 µM; in experiment [4], 6.4 µM; in experiment [5], 4.83 µM. Further, the concentration for half-maximal inhibition (IC50) in [6] was 56.6 µM; on Histone deacetylase 8 [7] it was at most 10 µM; in the experiment on U-937, at most 35 µM; with Jurkat E6.1 [8], at most 35 µM; in the experiment on MOLT-4 [9], at most 35 µM.
For `COc1ccc(/C=C/C(=O)NO)c(-c2ccc3c(c2)OCO3)c1`, the values for the IC50 with MCF7 and in the experiment with MDA-MB-231 were 7.7 µM and 9.5 µM, respectively. This compound had a GI50 in the experiment on HeLa of 2 µM.
As to `O=C(NO)[C@@H](Cc1ccccc1)n1nnc(-c2ccccc2)c1C#CC1CC1`, the half-maximal inhibitory concentration (IC50) on Histone deacetylase 1 is 4.3 µM; on Histone deacetylase 2, over 20 µM; at Histone deacetylase 3 it was over 20 µM; at Histone deacetylase 4 [10], over 20 µM; in [11], 1.2 µM; at Histone deacetylase 8 [12], 0.0008 µM. For the same compound, in experiment [13], the IC50 was over 20 µM.
Regarding `O=C(NO)c1cccc(-c2cn(CSc3ccccc3)nn2)c1`, the IC50 in experiment [11] turned out to be 2.4 µM. The GI50 in the experiment on Jurkat [14] turned out to be 2.8 µM; with HH it was 21 µM; in the experiment on MT4, 22 µM; with HuT78, 32 µM.
For the compound `O=C(CCCCCN1C(=O)c2cccc3cccc(c23)C1=O)NO`, in the experiment on Jurkat [15], the half-inhibitory concentration (IC50) was determined as 6.1 µM.
`O=C(/C=C/c1cccc(S(=O)(=O)Nc2ccccc2)c1)NO` [BELINOSTAT]: the results for the IC50 (on Histone deacetylase 4 [16]; in [17]) were 0.015 µM and 0.059 µM, respectively. For the same compound, the GI50 in the experiment on Jurkat [18] worked out at 0.11 µM; in the experiment on MOLT-4 [19], 0.12 µM; in the experiment with THP-1, 0.075 µM.
In the case of `O=C(O)CC[C@H](NC(=O)Cc1ccc(Br)cc1)C(=O)NCc1ccc(F)cc1`, the IC50 on Histone deacetylase was over 10 µM; at Histone deacetylase 8 [7] it was at most 10 µM; in the experiment with Jurkat E6.1 [20] it was 1.62 µM; in the experiment with U-937, over 35 µM; in the experiment on Jurkat E6.1 [8], under 35 µM; in the experiment with MOLT-4 [9] it was over 35 µM.
